Measurements from US20240415819A1, “MACROCYCLIC COMPOUNDS AS PROTEASOME SUBUNIT BETA TYPE-5 INHIBITORS” (Lead Discovery Center GmbH, priority 2021, published 2024).

Tests used:
hPMBC = experiment: Chymotrypsin-like ProteasomeGlo assay in hPBMC; format: cell-based; conditions: Homo sapiens; read-out: Pglo hPBMC
Source text: Chymotrypsin-like ProteasomeGlo assay in the B-cells isolated from PBMC's following compound addition (IC50). • 1. PBMC's will be isolated from human blood followed by B-cell isolation from the PBMC's using the Miltenyi Isolation Kit. • 2. This experiment will use the Chymotrypsin-like ProteasomeGlo read-out to generate IC50's following compound treatment. • 3. Dilute all compounds 1:100 for the assay. • 4. […] Repeat the DMSO transfer with lane 12. • 5. Lane 12 should not be seeded with any cells. Only medium! • 6. For all steps, make sure the samples and reagents remain cool! • 7. While dealing with the buffy coats, be careful to not let any exposed skin to be in direct contact with the blood.
For the initial steps and to make processing the buffy coats easier, separately process the buffy coats. • a. Cut the tube attached to the buffy coats carefully using a clean, sterile and fresh scalpel. • b. Transfer the blood into 2 individual 50 ml falcons. • c. Add an equal volume of DPBS to the blood in the falcons. • d. Add ˜20 ml of lymphocyte separating medium to two 50 ml falcons. • e. Carefully pour 15-20 ml of the blood+DPBS mix from step c. onto the lymphocyte separating medium from step d. • f. Centrifuge the falcons with the lymphocyte separating medium+blood mix at 800×g for 15 minutes using a swing-out rotor. • g. Following centrifugation, carefully remove the falcons from the centrifuge. • h. The following layers will be observed: • i. Aspirate the plasma layer off carefully without disturbing the different layers. • j. Remove the cell pellet using a pipette into two fresh 50 ml falcons. • k. Fill the falcons with the cells up to 50 ml with DPBS. • l. Centrifuge the falcons at 250×g for 10 minutes using a swing-out rotor (Brake-off). • m. Aspirate the complete DPBS off the cells without disturbing the cell pellet at the bottom of the falcon. • n. Re-suspend the cell pellet in 10 ml of 1×RBC lysis buffer. • o. Incubate the falcons at room temperature in the dark for 10 minutes. • p. After RBC lysis, centrifuge the tubes at 250×g for 10 minutes using a swing-out rotor (brake-off). • (*Note: If the cell pellet is still red or light red, repeat steps n. to p.!) • q. Re-suspend the cell pellet in DPBS up to 50 ml in the falcon. • r. Centrifuge the falcons at 250×g for 10 minutes using a swing-out rotor (Brake-off). • s. Aspirate the DPBS off the cells without disturbing the cell pellet at the bottom of the falcon. • t. Repeat the wash step as described in steps q. to s. 2× times more (total number of washes is 3×). • u. Aspirate the DPBS completely off the cell pellet after the last wash without disturbing the cell pellet. • v. Re-suspend the cell pellet in 20 ml of PBMC cell medium. • w.
• a. Remove the plates with cells from the incubator. • b. Take all the plates including the compound plate, intermediate plate and Staurosporine plate to the ECHO. • c. Click on “Open” in the ECHO software and select the protocol “QLI5_25ul_30 uM-Grenier”. • d. Follow the on-screen prompts and instructions once you click “Start” to insert the compound plate, intermediate plate and destination plates. • e. Change the final number of destination plates on the program. • f. Follow the on-screen prompts and instructions once you click “Start” to load the Staurosporine and destination plates. • g. Once all the compounds, DMSO and Staurosporine have been transferred, place the destination plates in a wet tissue box. • h. Place the destination plates back into the incubator and incubate at 37° C., 5% CO2 for 105 minutes. • i. Re-seal all the compound+Stauro diamond and intermediate plates and store in the dark. Chymotrypsin like ProteasomeGlo Assay • 1. Thaw the components of the ProteasomeGlo assay at room temperature including the ProteasomeGlo Buffer, the lyophilized Luciferin Detection Reagent and the Suc-LLVY-Glo Substrate. • 2. […]

HT-29 cells = experiment: CellTiter-Glo luminescent cell viability assay with HT-29 cells (72h incubation); format: cell-based, human; conditions: Homo sapiens, HT-29, HT29 cells, read-out: CTG HT29
In short: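 Viability read as CellTiter-Glo luminescence after 72 h compound exposure, with 10 μM staurosporine and DMSO as control wells. Seeding 400 cells per well, compound added 24 h post-plating; IC50 from curve fitting.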

[1] = system: Hs 746T (human gastric carcinoma cell line); experiment: 48 hr CTG viability assay, Hs 746T; format: cell-based; conditions: Hs746T, 48 hr CTG, read-out: Hs 746T IC50
In short: (§1)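 Growth inhibition by compound over 48 h; IC50 (nM) derived from duplicate CellTiter-Glo luminescence readings across 0.0015–10 uM.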

[2] = biological target: T1, β5 subunit of the human constitutive proteasome (CPS) (Homo sapiens, UniProt P28074); experiment: β5 inhibition assay, human constitutive proteasome (Suc-LLVY-AMC); format: biochemical; conditions: IC50 class, Suc-LLVY-AMC substrate
T1 construct: purchased Boston Biochem E-360
Procedure: The enzymatic activity of the β5 subunit of the human constitutive proteasome (CPS) is analyzed. In another assay, which differs from the assay of the human constitutive proteasome only in using the human immunoproteasome (IPS) the enzymatic activity of the β5 subunit of the human immunoproteasome (IPS) is analyzed. […] Inhibition is indicated as IC50 [nM] (“-”=not measured).

[3] = biological target: T2, β5 subunit of the human immunoproteasome (IPS) (Homo sapiens, UniProt P28062); experiment: β5 inhibition assay, human immunoproteasome (Suc-LLVY-AMC); format: biochemical; conditions: IC50 class, Suc-LLVY-AMC substrate
T2 construct: purchased Boston Biochem E-370
In short: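 β5 activity is read as liberated AMC fluorescence (355/460 nm) after 4 h dark reaction at RT with 22.6 μM Suc-LLVY-AMC, stopped by 1 μM bortezomib. Beforehand, 1 nM human IPS and compound sat 10 min at RT in HEPES pH 7.5 buffer containing NaCl, 0.02% SDS and DTT.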

[4] = system: RPMI 8226 (B lymphocyte cell line, multiple myeloma); experiment: 48 hr CTG viability assay, RPMI 8226; format: cell-based; conditions: Homo sapiens, RPMI-8226; 48 hr CTG; read-out: RPMI-8226 IC50
In short: as §1

[5] = system: MM1 S (B lymphoblast cell line); experiment: 48 hr CTG viability assay, MM1S; format: cell-based; conditions: Homo sapiens, 48 hr CTG, read-out: MM1S IC50
In short: as §1

[6] = system: A549 (human lung carcinoma cell line); experiment: Glo assay of A549 cells (Table 3; ProteasomeGlo plating scheme); format: cell-based; conditions: Homo sapiens; A549 cells; read-out: PGLo A549
In short: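 Luminescent read-out of cellular chymotrypsin-like proteasome activity: cells exposed to compound 105 min at 37° C., 5% CO2, then given Suc-LLVY-Glo reagent, shaken 2-5 min and kept dark 10-15 min before reading. Values are IC50 [nM].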

| SMILES | IC50 (hPMBC) [nM] | IC50 (HT-29 cells) [nM] | IC50 [1] [nM] | IC50 [2] [nM] | IC50 [3] [nM] | IC50 [4] [nM] | IC50 [5] [nM] | IC50 [6] [nM] |
| --- | --- | --- | --- | --- | --- | --- | --- | --- |
| CC(=O)N[C@H]1CC(=O)N2CC(COc3ccc(C)c(c3)CNC(=O)[C@H](CCc3ccccc3)NC1=O)C2 [Compound 259, N-((8S,11S)-4^4-methyl-7,10,13-trioxo-8-phenethyl-3-oxa-6,9-diaza-1(3,1)-azetidina-4(1,3)-benzenacyclotridecaphane-11-yl)acetamide] | > 5000 | 100 to 500 | – | – | – | – | – | – |
| CC(=O)N[C@H]1CC(=O)N2CCCC(COc3ccc(C)c(c3)CNC(=O)[C@H](CCc3ccccc3)NC1=O)C2 (stereo partly drawn) [Compound 257, N-((8S,11S)-4^4-methyl-7,10,13-trioxo-8-phenethyl-3-oxa-6,9-diaza-1(3,1)-piperidina-4(1,3)-benzenacyclotridecaphane-11-yl)acetamide] | 1000 to 5000 | 100 to 500 | – | – | – | – | – | – |
| Cc1cc2cc(c1C)CNC(=O)[C@H](CCc1ccccc1)NC(=O)[C@@H](NC(=O)OCc1ccccc1)CCCC(=O)NCCCCO2 [Compound 354, benzyl ((12S,15S)-14,15-dimethyl-8,13,16-trioxo-15-phenethyl-2-oxa-7,14,17-triaza-1(1,3)-benzenacyclooctadecaphane-12-yl)carbamate] | < 100 | 100 to 500 | – | – | – | – | – | – |
| Cc1ccc2cc1CNC(=O)[C@H](CCc1ccccc1)NC(=O)[C@@H](NC(=O)CCNCC1CC1)CC(=O)N1CCCC(CCO2)C1 (stereo partly drawn) [Compound 694, 3-((cyclopropylmethyl)amino)-N-((9S,12S)-5^4-methyl-8,11,14-trioxo-9-phenethyl-4-oxa-7,10-diaza-1(3,1)-piperidina-5(1,3)-benzenacyclotetradecaphane-12-yl)propanamide] | – | – | < 100 | < 100 | < 100 | < 100 | < 100 | < 100 |
| C#CCC[C@@H]1NC(=O)[C@@H](NC(=O)Cc2cn3ccsc3n2)CC(=O)N2CCCC(CCOc3ccc(C)c(c3)CNC1=O)C2 (stereo partly drawn) [Compound 686, N-((9S,12S)-9-(but-3-yn-1-yl)-5^4-methyl-8,11,14-trioxo-4-oxa-7,10-diaza-1(3,1)-piperidina-5(1,3)-benzenacyclotetradecaphane-12-yl)-2-(imidazo[2,1-b]thiazol-6-yl)acetamide] | – | – | < 100 | < 100 | < 100 | < 100 | < 100 | < 100 |
| Cc1ccc2cc1CNC(=O)[C@H](CCc1ccccc1)NC(=O)[C@@H](NC(=O)C(F)(F)CN)CC(=O)N1CCCC(CCO2)C1 (stereo partly drawn) [Compound 598, 3-amino-2,2-difluoro-N-((9S,12S)-5^4-methyl-8,11,14-trioxo-9-phenethyl-4-oxa-7,10-diaza-1(3,1)-piperidina-5(1,3)-benzenacyclotetradecaphane-12-yl)propanamide] | – | – | < 100 | < 100 | < 100 | < 100 | < 100 | < 100 |
| Cc1ccc2cc1CNC(=O)[C@H](CCc1ccccc1)NC(=O)[C@@H](NC(=O)CCNC(=O)c1ccc(N3CCOCC3)cc1)CC(=O)N1CCCC(CCO2)C1 (stereo partly drawn) [Compound 604, N-(3-(((9S,12S)-5^4-methyl-8,11,14-trioxo-9-phenethyl-4-oxa-7,10-diaza-1(3,1)-piperidina-5(1,3)-benzenacyclotetradecaphane-12-yl)amino)-3-oxopropyl)-4-morpholinobenzamide] | – | – | < 100 | < 100 | < 100 | < 100 | < 100 | < 100 |
| Cc1ccc2cc1CNC(=O)[C@H](CCc1ccccc1)NC(=O)[C@@H](NC(=O)CN1CCC1)CC(=O)N1CCCC(CCO2)C1 (stereo partly drawn) [Compound 663, 2-(azetidin-1-yl)-N-((9S,12S)-5^4-methyl-8,11,14-trioxo-9-phenethyl-4-oxa-7,10-diaza-1(3,1)-piperidina-5(1,3)-benzenacyclotetradecaphane-12-yl)acetamide] | – | – | < 100 | < 100 | < 100 | < 100 | < 100 | < 100 |

Results, then the compound that gave them:

| IC50 (hPMBC) [nM] | IC50 (HT-29 cells) [nM] | IC50 [1] [nM] | IC50 [2] [nM] | IC50 [3] [nM] | IC50 [4] [nM] | IC50 [5] [nM] | IC50 [6] [nM] | SMILES |
| --- | --- | --- | --- | --- | --- | --- | --- | --- |
| > 5000 | 100 to 500 | – | – | – | – | – | – | CC(=O)N[C@H]1CC(=O)NCCCOc2ccc(C)c(c2)CNC(=O)[C@H](CCc2ccccc2)NC1=O [Compound 253, N-((9S,12S)-1^4-methyl-7,10,13-trioxo-12-phenethyl-2-oxa-6,11,14-triaza-1(1,3)-benzenacyclopentadecaphane-9-yl)acetamide] |
| > 5000 | 100 to 500 | – | – | – | – | – | – | CC(=O)N[C@H]1CC(=O)N(C)CCCOc2ccc(C)c(c2)CNC(=O)[C@H](CCc2ccccc2)NC1=O [Compound 256, N-((9S,12S)-1^4,6-dimethyl-7,10,13-trioxo-12-phenethyl-2-oxa-6,11,14-triaza-1(1,3)-benzenacyclopentadecaphane-9-yl)acetamide] |
| – | – | < 100 | < 100 | < 100 | < 100 | < 100 | < 100 | COc1ccc(CCOCCC(=O)N[C@H]2CC(=O)N3CCCC(CCOc4ccc(C)c(c4)CNC(=O)[C@H](CCc4ccccc4)NC2=O)C3)cc1 (stereo partly drawn) [Compound 610, 3-(4-methoxyphenethoxy)-N-((9S,12S)-5^4-methyl-8,11,14-trioxo-9-phenethyl-4-oxa-7,10-diaza-1(3,1)-piperidina-5(1,3)-benzenacyclotetradecaphane-12-yl)propanamide] |
| – | – | < 100 | < 100 | < 100 | < 100 | < 100 | < 100 | COc1cccc(CCOCCC(=O)N[C@H]2CC(=O)N3CCCC(CCOc4ccc(C)c(c4)CNC(=O)[C@H](CCc4ccccc4)NC2=O)C3)c1 (stereo partly drawn) [Compound 581, 3-(3-methoxyphenethoxy)-N-((9S,12S)-5^4-methyl-8,11,14-trioxo-9-phenethyl-4-oxa-7,10-diaza-1(3,1)-piperidina-5(1,3)-benzenacyclotetradecaphane-12-yl)propanamide] |
